Laboratory results as given in patent EP3755703B1, “N-(PHENYL)-2-(PHENYL)PYRIMIDINE-4-CARBOXAMIDE DERIVATIVES AND RELATED COMPOUNDS AS HPK1 INHIBITORS FOR TREATING CANCER” (Incyte Corporation, priority 2018, dated 2019).

These compounds were tested against T1, HPK1 (Homo sapiens, UniProt Q92918) (assay: HPK1 Kinase Binding Assay). Details: LanthaScreen tracer 222, one hour incubation at 25 °C.
T1 construct: purchased SignalChem M23-11G
T1 sequence (Q92918 1-346 limits assumed): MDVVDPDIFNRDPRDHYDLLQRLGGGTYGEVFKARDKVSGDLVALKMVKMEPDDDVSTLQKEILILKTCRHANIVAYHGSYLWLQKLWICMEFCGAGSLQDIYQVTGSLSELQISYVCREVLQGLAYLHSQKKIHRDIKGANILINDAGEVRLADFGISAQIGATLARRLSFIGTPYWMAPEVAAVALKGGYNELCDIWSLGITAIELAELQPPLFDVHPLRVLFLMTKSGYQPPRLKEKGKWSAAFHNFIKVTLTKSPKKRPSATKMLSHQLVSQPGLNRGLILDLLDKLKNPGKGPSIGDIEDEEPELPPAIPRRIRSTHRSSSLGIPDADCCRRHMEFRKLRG
Procedure: A stock solution of 1 mM test compound was prepared in DMSO. The compound plate was prepared by 3-fold and 11-point serial dilutions. 0.1 µL of the compound in DMSO was transferred from the compound plate to the white 384 well polystyrene plates. The assay buffer contained 50 mM HEPES, pH 7.5, 0.01% Tween-20, 5 mM MgCl2, 0.01% BSA, and 5 mM DTT. 5 µL of 4 nM active HPK1 (SignalChem M23-11G) prepared in the buffer was added to the plate. The enzyme concentration given was based on the given stock concentration reported by the vender. […] After one hour incubation at 25 °C, the plates were read on a PHERAstar FS plate reader (BMG Labtech). Ki values were determined.

Row | SMILES | Ki
1 | COc1ccc(C#N)c(F)c1-c1nccc(C(=O)Nc2cc(F)ccc2N2C[C@@H](N)C[C@H]2CO)n1 [Example 67, N-(2-((2S,4S)-4-Amino-2-(hydroxymethyl)pyrrolidin-1-yl)-5-fluorophenyl)-2-(3-cyano-2-fluoro-6-methoxyphenyl)pyrimidine-4-carboxamide] | < 100 nM
2 | COc1c(F)ccc(F)c1-c1nccc(C(=O)Nc2ccc(-c3cnccc3C#N)cc2N2C[C@@H](N)C[C@H]2CO)n1 [Example 73, N-(2-((2S,4S)-4-Amino-2-(hydroxymethyl)pyrrolidin-1-yl)-4-(4-cyanopyridin-3-yl)phenyl)-2-(3,6-difluoro-2-methoxyphenyl)pyrimidine-4-carboxamide] | < 100 nM
3 | COc1cccc(F)c1-c1nccc(C(=O)Nc2cc(F)ccc2N2CCN[C@H](CO)C2)n1 [Example 104, (S)-N-(5-Fluoro-2-(3-(hydroxymethyl)piperazin-1-yl)phenyl)-2-(2-fluoro-6-methoxyphenyl)pyrimidine-4-carboxamide] | < 100 nM
4 | COc1cccc(F)c1-c1nccc(C(=O)Nc2ccc(-c3c(C)nn(C)c3C)cc2N2C[C@@H]3C[C@H]2CN3)n1 [Example 27, N-(2-((1S,4S)-2,5-Diazabicyclo[2.2.1]heptan-2-yl)-4-(1,3,5-trimethyl-1H-pyrazol-4-yl)phenyl)-2-(2-fluoro-6-methoxyphenyl)pyrimidine-4-carboxamide] | < 100 nM
5 | [2H]C([2H])([2H])Oc1ccc(F)c(F)c1-c1nccc(C(=O)Nc2ccc(-c3cnccc3C#N)cc2N2C[C@@H](N)C[C@H]2CO)n1 [Example 76, N-(2-((2S,4S)-4-Amino-2-(hydroxymethyl)pyrrolidin-1-yl)-4-(4-cyanopyridin-3-yl)phenyl)-2-(2,3-difluoro-6-(methoxy-d3)phenyl)pyrimidine-4-carboxamide] | < 100 nM
6 | COc1cnccc1-c1ccc(NC(=O)c2ccnc(-c3c(F)cccc3OC)n2)c(N2C[C@@H](N)C[C@H]2CO)c1 [Example 44, N-(2-((2S,4S)-4-Amino-2-(hydroxymethyl)pyrrolidin-1-yl)-4-(3-methoxypyridin-4-yl)phenyl)-2-(2-fluoro-6-methoxyphenyl)pyrimidine-4-carboxamide] | < 100 nM
7 | N#Cc1cnc(N2CCCC2)cc1-c1ccc(NC(=O)c2ccnc(-c3c(F)cccc3F)n2)c(N2C[C@@H](N)C[C@H]2CO)c1 [Example 93, N-(2-((2S,4S)-4-Amino-2-(hydroxymethyl)pyrrolidin-1-yl)-4-(5-cyano-2-(pyrrolidin-1-yl)pyridin-4-yl)phenyl)-2-(2,6-difluorophenyl)pyrimidine-4-carboxamide] | < 100 nM
8 | COc1cccc(F)c1-c1nccc(C(=O)Nc2ccc(Cl)cc2N2C[C@@H](N)C[C@H]2CO)n1 [Example 91, N-(2-((2S,4S)-4-Amino-2-(hydroxymethyl)pyrrolidin-1-yl)-4-chlorophenyl)-2-(2-fluoro-6-methoxyphenyl)pyrimidine-4-carboxamide] | < 100 nM
9 | COc1cccc(F)c1-c1nccc(C(=O)Nc2ccc(-c3cnccc3C#N)cc2N2CC[C@H]2CO)n1 [Example 106, (S)-N-(4-(4-Cyanopyridin-3-yl)-2-(2-(hydroxymethyl)azetidin-1-yl)phenyl)-2-(2-fluoro-6-methoxyphenyl)pyrimidine-4-carboxamide] | < 100 nM
10 | COc1cccc(F)c1-c1nccc(C(=O)Nc2ccc(-c3cnccc3C#N)cc2N2CCO[C@H](CO)C2)n1 [Example 100, (S)-N-(4-(4-Cyanopyridin-3-yl)-2-(2-(hydroxymethyl)morpholino)phenyl)-2-(2-fluoro-6-methoxyphenyl)pyrimidine-4-carboxamide] | < 100 nM
11 | COc1cccc(F)c1-c1nccc(C(=O)Nc2ccc(-c3ccncc3C#N)cc2N2C[C@@H](O)C[C@H]2CO)n1 [Example 49, N-(4-(3-Cyanopyridin-4-yl)-2-((2S,4S)-4-hydroxy-2-(hydroxymethyl)pyrrolidin-1-yl)phenyl)-2-(2-fluoro-6-methoxyphenyl)pyrimidine-4-carboxamide] | < 100 nM
12 | COc1cccc(F)c1-c1nccc(C(=O)Nc2cc(F)ccc2N2C[C@@H](N(C)C)C[C@H]2CO)n1 [Example 88, N-(2-((2S,4S)-4-(Dimethylamino)-2-(hydroxymethyl)pyrrolidin-1-yl)-5-fluorophenyl)-2-(2-fluoro-6-methoxyphenyl)pyrimidine-4-carboxamide] | < 100 nM
13 | COc1cccc(F)c1-c1nccc(C(=O)Nc2cc(F)ccc2N2CCC[C@@H]2CO)n1 [Example 4, (R)-N-(5-Fluoro-2-(2-(hydroxymethyl)pyrrolidin-1-yl)phenyl)-2-(2-fluoro-6-methoxyphenyl)pyrimidine-4-carboxamide] | < 100 nM
14 | COc1cccc(F)c1-c1nccc(C(=O)Nc2cc(F)ccc2N2CCCC2c2ccccn2)n1 (stereo not drawn) [Example 8, N-(5-Fluoro-2-(2-(pytidin-2-yl)pyrrolidin-1-yl)phenyl)-2-(2-fluoro-6-methoxyphenyl)pyrimidine-4-carboxamide] | 500 to 5000 nM

Further lines, results first:

Row | Ki | SMILES
15 | < 100 nM | COc1cccc(F)c1-c1nccc(C(=O)Nc2ccc(-c3cnccc3C#N)cc2N2C[C@@H](C)NC[C@H]2CO)n1 [Example 50, N-(4-(4-Cyanopyridin-3-yl)-2-((2S,5R)-2-(hydroxymethyl)-5-methylpiperazin-1-yl)phenyl)-2-(2-fluoro-6-methoxyphenyl)pyrimidine-4-carboxamide]
16 | < 100 nM | COc1cccc(F)c1-c1nccc(C(=O)Nc2cc(C)ccc2N2C[C@@H](N)C[C@H]2CO)n1 [Example 87, N-(2-((2S,4S)-4-Amino-2-(hydroxymethyl)pyrrolidin-1-yl)-5-methylphenyl)-2-(2-fluoro-6-methoxyphenyl)pyrimidine-4-carboxamide]
17 | < 100 nM | COc1cccc(F)c1-c1nccc(C(=O)Nc2ccc(-c3cnccc3C#N)cc2N2CC[C@H](N)C[C@@H]2C)n1 [Example 58, N-(2-((2S,4S)-4-Amino-2-methylpiperidin-1-yl)-4-(4-cyanopyridin-3-yl)phenyl)-2-(2-fluoro-6-methoxyphenyl)pyrimidine-4-carboxamide]
19 | < 100 nM | COc1cccc(F)c1-c1nccc(C(=O)Nc2ccccc2N2C[C@@H](N)C[C@H]2CO)n1 [Example 86, N-(2-((2S,4S)-4-Amino-2-(hydroxymethyl)pyrrolidin-1-yl)phenyl)-2-(2-fluoro-6-methoxyphenyl)pyrimidine-4-carboxamide]
20 | < 100 nM | COc1cccc(F)c1-c1nc(C(=O)Nc2ccc(-c3cnccc3C#N)cc2N2C[C@@H](N)C[C@H]2CO)ccc1C#N [Example 60, N-(2-((2S,4S)-4-Amino-2-(hydroxymethyl)pyrrolidin-1-yl)-4-(4-cyanopyridin-3-yl)phenyl)-5-cyano-6-(2-fluoro-6-methoxyphenyl)picolinamide]
21 | < 100 nM | COc1cccc(F)c1-c1nccc(C(=O)Nc2ccc(-c3cnccc3C#N)cc2N2CCN(C)CC2)n1 [Example 108, N-(4-(4-Cyanopyridin-3-yl)-2-(4-methylpiperazin-1-yl)phenyl)-2-(2-fluoro-6-methoxyphenyl)pyrimidine-4-carboxamide]
